Experimental findings from patent US20230105212A1, “BIPHENYL DERIVATIVE INHIBITOR, PREPARATION METHOD THEREFOR AND USE THEREOF” (SHANGHAI HANSOH BIOMEDICAL CO., LTD., priority 2020, published 2023) are described below.

For assay [1], the target named is T1, human PD-1/PD-L1 binding (Homo sapiens, UniProt Q9NZQ7).
T1 construct: PD-L1-His protein (19 to 238 amino acids) (Abcam #ab167713); purchased Abcam (PD-L1-His); R&D (PD-1-Fc) ab167713; 1086-PD
The assay can be described thus: Inhibition of human PD-1/PD-L1 binding (TR-FRET/HTRF). Conditions: TR-FRET, PD-L1-His and PD-1-Fc; read-out: PD-1/PD-L1 binding IC50. The procedure, abridged: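 PD-L1-His (aa 19–238, diluted to 10 nM) and PD-1-Fc (aa 25–167, diluted to 20 nM) incubated with compounds (10 μM or 1 μM top, 3-fold, 11 doses) 60 min at room temperature, then anti-6HIS Eu cryptate/anti-human IgG-XL665 added for 3 h RT or overnight 4 °C. HTRF 665/620 nm ratio gave inhibition and IC50.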
Background: In TR-FRET formats the signal depends on donor and acceptor labels being close together.

In assay [2] the target is T2, PD-L1 protein on the surface of MC38-hPDL1 tumor cells (Homo sapiens, UniProt Q9NZQ7).
T2 construct: expressed in transfected cells; host or cells: MC38-hPDL1 (mouse colon cancer cells)
Kind of assay: Induction of endocytosis of PD-L1 on the surface of tumor cells (flow cytometry). Conditions: 16 hours incubation; for Emax: MC38-hPDL1 cells, read-out: MC38 maximum endocytosis rate; for IC50: inducing endocytosis of PD-L1, MC38-hPDL1 cells, read-out: MC38 IC50. The class given is cell-based. In short, it runs like this: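 IC50 comes from nonlinear fits of endocytosis rate, calculated from the loss of surface PE-anti-CD274 flow signal relative to vehicle. Cells were MC38 mouse colon cancer cells engineered to express high human PD-L1. Compound exposure lasted 16 h at 37 °C, 5% CO2.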
On the technique in general: A flow cytometer gives signals particle by particle.

Assay [3] deals with T3, human PD-L1 protein (Homo sapiens, UniProt Q9NZQ7).
T3 construct: purchased Acro Biosystems PD1-H5229
Kind of assay: Thermal shift: melting temperature of PD-L1 protein. The class given is binding. Conditions: compound 10 μM, PD-L1 protein 2 μM, Tm minus DMSO vehicle control; read-out: ΔTm (° C.). The procedure, abridged: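 Human PD-L1 at 2 μM final was tested in […], 150 mM NaCl with SYPRO Orange, heated 25→95 °C at 0.03 °C/s in a PCR melt-curve run. Tm was taken per treatment; ΔTm is the shift relative to DMSO vehicle.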

The test system of assay [4] is NFAT-luc2/PD1 Jurkat cells. The assay can be described thus: In vitro cytotoxicity on NFAT-luc2/PD1 Jurkat cells (CellTiter-Glo). Format: cell-based. To be noted: 72 hours; for IC50: Homo sapiens, Jurkat. As to the method:
(§1) Test Embodiment 5. In Vitro Cytotoxicity of the Compounds of the Present Disclosure on NFAT-Luc2/PD1 Jurkat Cells and MC38-hPDL1 Cells
(§2) Experimental purpose: To test the in vitro cytotoxicity of compounds on NFAT-luc2/PD1 Jurkat cells and MC38-hPDL1 cells.
(§3) When the cells were cultured to an appropriate degree of confluency, the cells were collected, and the cells was adjusted in an appropriate cell concentration by complete medium, then the cell suspension was plated in a 96-well plate, 90 μL per well, and put in a 37° C., 5% CO2 incubator overnight; compound solutions of different concentrations were prepared by DMSO and medium, and a vehicle control was set; compound solutions were added to a 96-well plate, 10 μL per well, and put in a 37° C., 5% CO2 incubator and cultured for 72 hours. After that, CellTiter-Glo solution was added, the mixture was shaken and mixed evenly, incubated in the dark for 10 minutes, and a BioTek Synergy H1 microplate reader was used for reading.
(§4) Luminescence signal value was used to calculate the inhibition rate, and the concentration and inhibition rate were fitted by nonlinear regression curve using Graphpad Prism software to obtain IC50 values, as shown in the following table: […]
(In general: ATP-based viability assays read luminescence as a measure of living cells.)

For assay [5], the system named is MC38-hPDL1 cells. The assay can be described thus: In vitro cytotoxicity on MC38-hPDL1 cells (CellTiter-Glo). To be noted: for MC38-hPDL1 inhibition rate (%): 72 hours; for IC50: Mus musculus, MC38-hPD-L1, 72 hours. Format: cell-based, mouse. As to the method: as §1, §2, §3, §4
Assay [6] deals with CHO-PDL1/Jurkat-PD1 cell pathway. The assay can be described thus: Inhibition of CHO-PDL1/Jurkat-PD1 cell pathway (NFAT luciferase reporter). Format: cell-based. Conditions: for EC50: 6 hours incubation, luciferase signal; for maximal fold induction: relative to the signal value of the non-dosed group, read-out: Maximum induction fold. As to the method: Test Embodiment 3. Inhibitory Effect of the Compounds of the Present Disclosure on CHO-PDL1/Jurkat-PD1 Cell Pathway
Experimental purpose: The purpose of this test embodiment was to test the inhibitory effect of compounds on the CHO-PDL1/Jurkat-PD1 cell pathway.
Experimental method: Two stably transfected cell lines were included in this experiment, CHO-K1 cells stably transfected with PD-L1 and Jurkat cells stably transfected with PD-1 and NFAT luciferase reporter genes. Compounds were incubated with the two cell lines. Then, due to the inhibitory effect on the PD-1/PD-L1 pathway, the activation degree of Jurkat cells changed, so that the level of the reporter gene NFAT in the downstream of Jurkat cells changed, and the level of NFAT was characterized by detecting the signal value of luciferase, so that the inhibitory effect of the test compound on CHO-PDL1/Jurkat-PD1 pathway was characterized.
CHO-PDL1 cells (Promega, #J1252) were cultured to a suitable cell density. After digestion, the cells were resuspended by complete medium to become a suitable density of cell suspension. The cell suspension was plated 100 μL per well on a 96-well plate (Corning, #3610), and placed in a 37° C., 5% CO2 incubator and incubated overnight, and assay medium (RPMI 1640+2% FBS, RPMI 1640 Cat. No.: Gibco, #22400089, FBS Cat. No.: Gibco, #10091148) was used to prepare compound solutions of different concentrations. NFAT-luc2/PD1 Jurkat cells (Promega, #J1252) were collected and resuspended to the appropriate cell density using assay medium. The supernatant of the CHO-PDL1 cell culture plate was aspirated, and 40 μL of the prepared compound solution and 40 μL of resuspended NFAT-luc2/PD1 Jurkat cells were added, and incubated in a 5% CO2 incubator at 37° C. for 6 hours, and the cell plate was taken out, then 40 μL of One-Glo reagent (Promega, #E6120) was added to each well, shaked and mixed well, incubated in the dark at room temperature for 10 minutes, then put into a microplate reader and the luminescence program was used to read the luminescence value of the cell plate.
The EC50 value was fitted according to the compound concentration and the luminescence signal value, and the maximum induction fold of each compound relative to the signal value of the non-dosed group was calculated, as shown in Table 3.

T2 sequence (Q9NZQ7 19-290): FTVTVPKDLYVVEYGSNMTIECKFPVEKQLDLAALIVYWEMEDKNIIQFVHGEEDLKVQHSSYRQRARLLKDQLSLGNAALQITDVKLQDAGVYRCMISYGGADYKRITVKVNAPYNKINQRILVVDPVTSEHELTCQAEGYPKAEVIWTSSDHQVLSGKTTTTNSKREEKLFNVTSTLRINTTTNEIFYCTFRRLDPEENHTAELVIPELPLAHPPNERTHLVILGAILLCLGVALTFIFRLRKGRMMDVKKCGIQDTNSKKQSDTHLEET
T3 sequence (Q9NZQ7 19-238 limits assumed): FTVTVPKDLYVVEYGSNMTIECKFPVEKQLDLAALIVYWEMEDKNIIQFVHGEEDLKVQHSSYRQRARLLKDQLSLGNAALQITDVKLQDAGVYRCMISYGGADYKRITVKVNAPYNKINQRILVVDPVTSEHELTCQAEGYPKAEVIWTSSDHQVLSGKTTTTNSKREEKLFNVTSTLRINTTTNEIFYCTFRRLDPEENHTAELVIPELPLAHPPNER
T1 sequence (Q9NZQ7 19-238): as the sequence (Q9NZQ7 19-238 limits assumed) above

Regarding `COc1cc(C(=O)Nc2cccc(-c3cccc(NC(=O)c4nc5c(n4C)CCN(C)C5)c3Cl)c2C)ncc1CN[C@@H]1CCOC[C@@H]1F` [Embodiment 30, N-(2-Chloro-3′-(5-((((3R,4R)-3-fluorotetrahydro-2H-pyran-4-yl)amino)methyl)-4-methoxypicolinamido)-2′-methyl-[1,1′-biphenyl]-3-yl)-1,5-dimethyl-4,5,6,7-tetrahydro-1H-imidazo[4,5-c]pyridine-2-carboxamide], the IC50 in assay [1] was determined as 5.7 nM. Besides, in assay [2], the Emax was found to be 94% and the IC50 turned out to be 3.7 nM. Besides, the ΔTm (usually the change in melting temperature against a reference sample) at 10 µM in assay [3] is 11.2 °C. Further, in assay [4], the “Jurkat-PD1 inhibition rate (%)” value is given as 99.0%^ and the IC50 was determined as 2950 nM. Further, in assay [5], the “MC38-hPDL1 inhibition rate (%)” value was determined as 4.0% and the IC50 was above 10000 nM.

Consider `COc1cc(C(=O)Nc2cccc(-c3cccc(NC(=O)c4nc5c(n4C)CCN(C)C5)c3Cl)c2C)ncc1CNc1ccnc(C)n1` [Embodiment 90, N-(2-Chloro-3′-(4-methoxy-5-(((2-methylpyrimidin-4-yl)amino)methyl)picolinamido)-2′-methyl-[1,1′-biphenyl]-3-yl)-1,5-dimethyl-4,5,6,7-tetrahydro-1H-imidazo[4,5-c]pyridine-2-carboxamide], for which, in assay [2], the Emax came to 80% and the IC50 was 9.9 nM. Also, the thermal shift (ΔTm) at 10 µM in assay [3] worked out at 11 °C. Besides, in assay [6], the EC50 – broadly, the concentration needed to bring the measured effect to its halfway point – was determined as 99 nM and the maximal fold induction is 3.2. In assay [4], the “Jurkat-PD1 inhibition rate (%)” value amounted to 99.0%^ and the IC50 was determined as 1400 nM. In assay [5], the “MC38-hPDL1 inhibition rate (%)” value is on record as 6.8% and the IC50 is above 10000 nM.

With `COc1cc(C(=O)Nc2cccc(-c3cccc(NC(=O)c4nc5c(n4C)CCN(C)C5)c3Cl)c2C)ncc1CNC1(C(=O)O)COC1` [Embodiment 102, 3-(((6-((2′-Chloro-3′-(1,5-dimethyl-4,5,6,7-tetrahydro-1H-imidazo[4,5-c]pyridine-2-carboxamido)-2-methyl-[1,1′-biphenyl]-3-yl)carbamoyl)-4-methoxypyridin-3-yl)methyl)amino)oxetane-3-carboxylic Acid], the IC50 in assay [1] was 1 nM; in assay [4], above 10000 nM; in assay [5] it was above 10000 nM. Moreover, the ΔTm at 10 µM in assay [3] stood at 10.8 °C. Further, the “Jurkat-PD1 inhibition rate (%)” value in assay [4] is listed as −12.0% ^. For the same compound, the “MC38-hPDL1 inhibition rate (%)” value in assay [5] was −6.7%^.

Consider `COc1nc(-c2cccc(-c3cccc(NC(=O)c4nc5c(n4C)CCN(C)C5)c3Cl)c2C)ccc1CNC1COC1` [Embodiment 112, N-(2-Chloro-3′-(6-methoxy-5-((oxetan-3-ylamino)methyl)pyridin-2-yl)-2′-methyl-[1,1′-biphenyl]-3-yl)-1,5-dimethyl-4,5,6,7-tetrahydro-1H-imidazo[4,5-c]pyridine-2-carboxamide], for which the IC50 in assay [1] turned out to be 9.4 nM. For the same compound, in assay [2], the Emax worked out at 87% and the IC50 stood at 11 nM. Further, in assay [3], the shift in melting temperature (ΔTm) at 10 µM turned out to be 12 °C. For the same compound, in assay [4], the “Jurkat-PD1 inhibition rate (%)” value worked out at 57.0%^ and the IC50 worked out at 8630 nM. In assay [5], the “MC38-hPDL1 inhibition rate (%)” value is on record as 13.0%^ and the IC50 is above 10000 nM.

On to `COc1cc(-c2cccc(-c3cccc(NC(=O)c4nc5c(n4C)CCN(C)C5)c3Cl)c2Cl)ccc1CNCC(=O)O` [Embodiment 159, ((2′,2″-Dichloro-3″-(1,5-dimethyl-4,5,6,7-tetrahydro-1H-imidazo[4,5-c]pyridine-2-carboxamido)-3-methoxy-[1,1′:3′,1″-terphenyl]-4-yl)methyl)glycine], for which the IC50 in assay [1] amounted to 2.2 nM. Also, in assay [6], the 50% effective concentration (EC50) amounted to 45 nM and the maximal fold induction turned out to be 3.2. Moreover, in assay [4], the “Jurkat-PD1 inhibition rate (%)” value was determined as 24% and the IC50 is above 10000 nM. Besides, in assay [5], the “MC38-hPDL1 inhibition rate (%)” value amounted to 5% and the IC50 was above 10000 nM.

With `COc1nc(-c2cccc(-c3cccc(NC(=O)c4nc5c(n4C)CCN(C)C5)c3Cl)c2Cl)ccc1CN1CC(CO)C1` [Embodiment 215, N-(2,2′-Dichloro-3′-(5-((3-(hydroxymethyl)azetidin-1-yl)methyl)-6-methoxypyridin-2-yl)-[1,1′-biphenyl]-3-yl)-1,5-dimethyl-4,5,6,7-tetrahydro-1H-imidazo[4,5-c]pyridine-2-carboxamide], the IC50 in assay [1] was 5 nM. Moreover, the Emax in assay [2] amounted to 96%. For the same compound, the shift in melting temperature (ΔTm) at 10 µM in assay [3] was found to be 17.3 °C. Further, in assay [4], the “Jurkat-PD1 inhibition rate (%)” value amounted to 85% and the IC50 came to 4320 nM. Moreover, in assay [5], the “MC38-hPDL1 inhibition rate (%)” value came out at 51% and the IC50 was 9340 nM.

Consider `COc1nc(-c2cccc(-c3cccc(NC(=O)c4nc5c(n4C)CCN(C)C5)c3Cl)c2Cl)cnc1CN1CC(F)C1` [Embodiment 217, N-(2,2′-Dichloro-3′-(5-((3-fluoroazetidin-1-yl)methyl)-6-methoxypyrazin-2-yl)-[1,1′-biphenyl]-3-yl)-1,5-dimethyl-4,5,6,7-tetrahydro-1H-imidazo[4,5-c]pyridine-2-carboxamide], for which, in assay [2], the Emax was 96% and the IC50 stood at 1.4 nM. Further, the shift in melting temperature (ΔTm) at 10 µM in assay [3] amounted to 13 °C. For the same compound, in assay [4], the “Jurkat-PD1 inhibition rate (%)” value was 79% and the IC50 was determined as 5370 nM. Besides, in assay [5], the “MC38-hPDL1 inhibition rate (%)” value is recorded as 67% and the IC50 was determined as 7150 nM.

For the compound `COc1nc(-c2cccc(-c3cccc(NC(=O)c4nc5c(n4C)CCN(C)C5)c3Cl)c2Cl)ncc1CN1CC(NC(C)=O)C1` [Embodiment 224, N-(3′-(5-((3-Acetylaminoazetidin-1-yl)methyl)-4-methoxypyrimidin-2-yl)-2,2′-dichloro-[1,1′-biphenyl]-3-yl)-1,5-dimethyl-4,5,6,7-tetrahydro-1H-imidazo[4,5-c]pyridine-2-carboxamide], the IC50 in assay [1] came out at 4 nM. In assay [2], the Emax came to 90%. Further, the thermal shift (ΔTm) at 10 µM in assay [3] was determined as 11.3 °C. For the same compound, in assay [4], the “Jurkat-PD1 inhibition rate (%)” value is 48% and the IC50 worked out at 9500 nM. For the same compound, in assay [5], the “MC38-hPDL1 inhibition rate (%)” value came out at 1% and the IC50 was above 10000 nM.
